Experiments:
[1] = finite-element (COMSOL) simulation of local gentamicin delivery to a retracted surgical wound; details: calculated model parameter, adipose wound tissue
Description: In order to better understand the differences between systemic delivery and local delivery of therapeutic agents, a finite-element analysis software package (COMSOL) was used to generate a three dimensional (3D) model of a retracted surgical wound with a 12 cm incision. […] The 3D model shown in FIG. 23 was modeled in a Computer Aided Design (CAD) package (Solidworks) based on the geometry of the device and the retracted wound tissue in a cadaver.
Gentamicin, a member of the aminoglycoside family, was used as the antibiotic in the model due to its prevalence in clinical use to combat the enteric, gram-negative bacteria that cause wound infections. A concentration of 240 mg/L was delivered during the simulated 4 hr surgery based on standard clinical protocols.
where Φ, D, and C are the particle flux, diffusion coefficient, and concentration, respectively. […]
The diffusion coefficients of various solutes and solvents have been experimentally obtained and published. However, for solute-solvent combinations that have not been published or experimentally determined, the molecular weight of a given solute may be correlated to the diffusion coefficient in the same solvent using a logarithmic relation. […]
The simulation was run for four hours to mimic a standard colorectal procedure and the antibiotic flux and tissue concentration was recorded at each time step.

E. coli [2] = experiment: minimum inhibitory concentration of gentamicin, E. coli; assay type: cell-based
Description: The extent of absorption of a fluid or solute into the tissue may be a function of the rate of fluid delivery, concentration of solutes (if any) in the delivered fluid, physical characteristics of the solutes (if any), the porosity of the tissue, tortuousity of the tissue, systemic absorption via the capillary bed and subsequent renal clearance, and/or the time period over which the surgical device and delivered fluid are in contact with the wound tissues. […] The minimum inhibitory concentration (16 mg/L) was reached are the wound surface in about 3 minutes of fluid delivery. […] The surgical device may thus be able to reduce microbial growth in wounds even after being removed, which may result in a lower risk of developing a surgical site infection.
The surgical device may be used to deliver a therapeutic fluid to a wound tissue to maintain a constant therapeutic concentration in the tissue. The therapeutic concentration in the tissue may be maintained for a portion of or the entire duration of the surgical procedure. The concentration of the therapeutic agent (e.g. antibiotic) may be maintained within a pre-determined range. The pre-determined concentration may depend on the type of therapeutic used as described herein. […] The therapeutic concentration may be at or above the minimum inhibitory concentration. […]

E. coli [3] = experiment: acute abdominal surgical model with E. coli contamination, quantitative wound tissue culture; assay type: in vivo, pigs; details: E-F group
Description: In the gentamicin group, the degree of systemic absorption of the antibiotic was quantified.
Seven female adult pigs weighing 50-70 kg were placed under general anesthesia and monitored for the duration of the experimental protocol. The abdomen was shaved, sterilely prepped with chlorhexidine solution, and draped under sterile conditions. A 12-cm periumbilical midline incision was made and the abdominal cavity was entered. After approximately 2.5 hours of wound retraction to simulate a prototypical length of time for colonic dissection, a gentamicin-sensitive E. coli suspension at a standardized concentration of 10^9 colony-forming units (CFU) in 10 mL normal saline was dripped onto the central colon. E. coli is classified as an enteric bacteria species. […]
FIGS. 28A-28B show the locations at which two swab samples were taken just prior to device removal (e.g. at Time 1). […] Colonies were identified as E. coli, enumerated, and recorded, and the results for serial dilutions were internally validated. […] Tissue culture results were expressed as colony-forming units (CFU) per gram. […]
Quantitative culture results were expressed in mean±standard deviation (SD). Statistical comparisons of quantitative culture results were performed using the Student's t-test. Significance was determined based on a value of p<0.05.

[4] = intravenous administration, 240 mg; cited from earlier work
[5] = test system: gram-negative bacteria present in colorectal surgeries; details: required to neutralize gram-negative bacteria present in colorectal surgeries; cited from earlier work
E. coli [6] = details: cited from earlier work
[7] = serum and wound tissue gentamicin concentration by ELISA after local delivery through the surgical device; details: E-F group
Description: The 7 pigs were divided into two groups each: 1. Control (n=1) where no device was used and a sham procedure was performed. 2. “Experimental-No Fluid” (E-NF) group (n=3) where the surgical device was used without any irrigation delivered through the device in order to mimic conditions with other non-irrigating surgical retractors. 3. […] The irrigation fluid was delivered via gravity drainage from an IV bag hung on a pole at a height of 6 feet, and removal of fluid from the device was achieved via wall suction into a standard surgical canister. Both the fluid delivery and fluid removal mechanisms were integrated into the surgical device via separate tubing connections. The total time of irrigation averaged approximately 4 hours.
Experimental data was collected at two time points. Time 1 was after 4 hours of simulated surgery and/or irrigation and at the time of device removal. Time 2 was 4 hours after wound closure (e.g. at the time of wound reopening).
In the E-F group, peripheral blood samples were drawn by the anesthetists at Times 1 and 2. The blood was collected in serum-separator tubes and centrifuged. […] Two 4 mm×8 mm punch biopsies at each time point were taken, homogenized, and diluted in 1 mL phosphate buffered saline (PBS). The sample was centrifuged, and the supernatant was isolated for ELISA analysis.

gentamicin
Effective Diffusion Coefficient [1]: 1.88E−6 cm^2/s | delivered fluid concentration (240 mg/L) relative to typical minimum inhibitory concentration of E. coli (E. coli [2]): about 60 time greater | quantitative wound culture (E. coli) in tissue sample (E. coli [3]; 240 mg gentamicin sulfate in 1 L saline through device, Time 1 (device removal)): 1.25±1.55×10^2 CFU/gm | quantitative wound culture (E. coli) in tissue sample (E. coli [3]; Time 2 (4 hours after wound closure)): 2.08±3.01×10^2 CFU/gm | peak tissue concentration relative to minimum inhibitory concentration [4]: 4.5 times | time of peak tissue concentration after administration [4]: roughly 20 minutes | minimum inhibitory concentration (MIC) [5]: 0.003 mol/m^3 | minimum inhibitory concentration (E. coli [6]): 16 µg/mL | gentamicin concentration at the wound margins (tissue) ([7]; Time 1, punch biopsies of subcutaneous fat): 0.97 ± 0.33 mg/kg | gentamicin concentration at the wound margins (tissue) ([7]; Time 2, punch biopsies of subcutaneous fat): 0.60 ± 0.37 mg/kg

From patent US20170128059A1, “METHODS AND APPARATUS FOR PREVENTION OF SURGICAL SITE INFECTIONS” (priority 2015, published 2017)
